In one series the test system is solid cancer. Particulars: in words; clinical use; cited from earlier work.
In series [1] the test system is dihydrofolic acid reductase. The note with it: in words; cited from earlier work.
In series [2] the test system is Human nasopharyngeal cancer KB cells. The series is described as follows: cell growth inhibiting effect in KB cells (MTT). The series is classed as cell-based. Particulars: 72 hours. How it is done:
Human nasopharyngeal cancer KB cells (1×10^4 cells/ml) prepared according to a conventional method were inoculated into each well of the 96-microwell plate (0.1 ml in a well) and subjected to standing culture at 37° C. under 5% CO2 for 24 hours. To this was added a solution of one of the compounds obtained in the Working Examples in 10% MEM (Nissui Pharmaceutical Co. Ltd.), and subjected again to standing culture at 37° C. under 5% CO2 for 72 hours. Then the culture was pipetted out, and another 0.1 ml of the solution of MTT (Dojindo Laboratories) in 10% MEM (1.0 mg/ml) was added and incubated at 37° C. for 4 hours. Then 0.1 ml of the 10% SDS solution (Wako Pure Chemicals) was added and incubated at 37° C. for further 24 hours. The absorbance at 590 nm was measured and the IC50 value of the compound was defined as the concentration of the compound required to decrease the number of cells in the untreated control group by 50%.

Series [3] has as its system Human fetal normal lung fibroblasts HEL. The series is described as follows: cell growth inhibiting effect in HEL cells (MTT). In kind it is cell-based. Particulars: Fibroblast, 72 hours. The procedure: (2) Human fetal normal lung fibroblasts HEL (1×10^4 cells/ml) were suspended in the MEM culture medium (Nippon Flow Laboratories) and 0.1 ml of the suspension was inoculated into each well of the 96-microwellplate. After standing culture at 37° C. under 5% CO2 for 24 hours, MEM culture medium containing the compound of this invention was added and the mixture was incubated for further 72 hours. The medium was replaced by the medium containing 1 μg/ml of MTT (Dojindo Laboratories), to which was added 10% SDS (Wako Pure Chemicals), and incubated overnight. Absorbance at 590 nm was measured by he Multiscan (Titertec Co.). The IC50 value was determined by comparing the absorbance in the untreated control group.

In series [4] the test system is Human Leukemia cells HL-60. The series can be described thus: cell growth inhibiting effect in HL-60 cells ([3H]-thymidine incorporation). The series is classed as cell-based. The note with it: HL-60, 68 hours + 4 hours [3H]-thymidine. How it is done: (1) Human Leukemia cells HL-60 (2×10^5 cells/ml) were suspended in the GIT culture medium (Wako Pure Chemicals) containing the compound of this invention and 0.2 ml of the suspension was inoculated into each well of the 96-microwell plate. After standing culture at 37° C. under 5% CO2 for 68 hours, 1 μCi of [^3 H]-thymidine (5 Ci/mmol) was added and the mixture was incubated for 4 further hours. For measurement of the incorporation of thymidine into the cells, the acid-insoluble fraction was collected on a glass filter, and the radioactivity of the fraction was measured by a liquid scintillation counter. The IC50 value of the compound was defined as the concentration of the compound required to decrease the radioactivity incorporated into the cells in the untreated control group by 50%.
Background: Incorporation of labelled thymidine or its analogues reports DNA synthesis.

≈ marks a conversion by molar mass, not a printed value. Some results are limits rather than exact numbers.

What is called IC50 is the concentration needed to halve the response being measured.

With `CN(Cc1cnc2nc(N)nc(N)c2n1)c1ccc(C(=O)N[C@@H](CCC(=O)O)C(=O)O)cc1` [MTX], in the series with solid cancer, the “effect on solid cancer” value is listed as “little effect on solid cancer” and the toxicity result is “relatively strong toxicity”. The “inhibition of dihydrofolic acid reductase” value in series [1] was “inhibit the reduction from dihydrofolic acid into tetrahydrofolic acid by coupling strongly with the dominant enzyme”.
`Nc1nc(N)c2c(CCCc3ccc(C(=O)N[C@@H](CCC(=O)O)C(=O)O)cc3)c[nH]c2n1` [Working Example 4, N-[4-[3-(2,4-diamino-7H-pyrrolo [2,3-d]pyrimidin-5-yl)propyl]benzoyl]-L-glutamic acid] displayed an IC50 in series [2] of 0.3 ng/mL (≈ 0.681 nM).
Still for that read-out and setting: under `Nc1nc(N)c2c(CCCc3ccc(C(=O)N[C@@H](CCC(=O)O)C(=O)O)cc3)c(O)[nH]c2n1` [Working Example 6, N-[4-[3-(2,4-diamino-6-hydroxy-7H-pyrrolo[2,3-d]pyrimidin-5-yl)propyl]benzoyl]-L-glutamic acid] stands 80 ng/mL (≈ 175 nM).
Take `Nc1nc(O)c2c(n1)NCC2CCCc1ccc(C(=O)N[C@@H](CCC(=O)O)C(=O)O)cc1` (stereo partly drawn) [Working Example 14, N-[4-[3-(2-amino-4-hydroxy-5,6-dihydropyrrolo[2,3-d]pyrimidin-5-yl)propyl]benzoyl]-L-glutamic acid]: the half-maximal inhibitory concentration (IC50) was > 20 µg/mL in series [3] and 0.04 µg/mL in series [4].
With `Nc1nc(N)c2c(n1)NCC2CCCc1ccc(C(=O)N[C@@H](CCC(=O)O)C(=O)O)cc1` (stereo partly drawn) [Working Example 16, N-[4-[3-(2,4-diamino-5,6-dihydropyrrolo[2,3-d]pyrimidin-5-yl)propyl]benzoyl]-L-glutamic acid], the IC50 in series [2] was 0.6 ng/mL (≈ 1.36 nM).

Source of the values: patent US4997838A, “Pyrrolopyrimidine derivatives, their production and use” (Takeda Chemical Industries, Ltd., priority 1988, dated 1991).
